Earlier results in patent US12686875B2, “Small molecules for increasing precise genome editing efficiency” (Max-Planck-Gesellschaft zur Förderung der Wissenschaften …, priority 2018, dated 2026).

Tests used:
hiPSCs = settings: cited from earlier work
mouse ESCs = settings: dsODN donors, from 17.7% without L755507 (Yu et al. 2015); cited from earlier work
HEK293A cells = settings: cited from earlier work
[1] = test system: precise genome editing (PGE); settings: SCR7 and L755507 added together with RS-1; cited from earlier work
rabbit embryos = settings: dsODN donors, from 4.4% without RS-1; cited from earlier work
U2OS cells = settings: dsODN donors, from 1.9% without RS-1; cited from earlier work
[2] = test system: porcine fetal fibroblasts; settings: ssODN donors (Wang et al. 2016); cited from earlier work

Row | Compound | stimulation of PGE (hiPSCs; hiPSCs (Zhang et al. 2017)) | PGE (hiPSCs; hiPSCs, ssODN, from 0.35% without L755507 (Yu et al. 2015)) [%] | PGE (mouse ESCs) [%] | effect on PGE (HEK293A cells) | effect on PGE when added together with RS-1, compared to RS-1 alone [1] | PGE (rabbit embryos) [%] | increase of PGE (hiPSCs; hiPSCs, dsODN donors (Zhang et al., 2017)) | PGE (U2OS cells) [%] | PGE (HEK293A cells; dsODN donors, from 3.5% without RS-1) [%] | effect on PGE efficiency [2]
1 | CCCCCCNC(=O)Nc1ccc(S(=O)(=O)Nc2ccc(CCNC[C@H](O)COc3ccc(O)cc3)cc2)cc1 [L755507] | did not find significant stimulation | 3.13 | 33.3 | did not find significant stimulation | no additive effect |  |  |  |  | 
2 | O=C(Nc1ccc(Br)cc1)c1ccc(Br)c(S(=O)(=O)NCc2ccccc2)c1 [RS-1] |  |  |  |  |  | 26.1 | not | 2.4 | 21 | No effect
